Reference: patent publication US20160083397A1, “PARTHENOLIDE DERIVATIVES AND THEIR MODULATION OF PROCESSES CONTROLLED BY REGULATED TRANSLATION” (THE BOARD OF TRUSTEES OF THE UNIVERSITY OF ARKANSAS, priority 2013, published 2016)
Where “and” joins values, the source holds several entries; their conditions need not be identical. Identical values can stand only once.

What was measured:
Xenopus oocytes = experiment: Xenopus oocyte maturation assay; assay type: cell-based; details: for Xenopus Oocyte Maturation Assay, Without Progesterone: no progesterone, activator = able to induce GVBD in the absence of added progesterone; for Xenopus Oocyte Maturation Assay, With Progesterone: test compound 100 μM, progesterone 2 μg/mL, inhibitor = slowed rate of progesterone-dependent GVBD by 20% or more
Source text: An in vivo Xenopus oocyte maturation assay was used to screen the compounds for their ability to modulate the activity of cell cycle control proteins, mRNA translational control proteins, and/or proteins involved in signaling pathways. In this assay, oocyte maturation (or cell cycle progression) is monitored phenotypically using an image capture system. Oocyte maturation is correlated with the appearance of a white spot at the animal pole of the darkly pigmented animal hemisphere of the oocyte. The white spot appears because the germinal vesicle (i.e., the large nucleus of the oocyte) migrates to the animal pole prior to meiotic germinal vesicle breakdown (GVBD).
Immature stage VI Xenopus oocytes were transferred to wells of a flat bottom 96-well plate containing about 178 μL of L15 culture media. The oocytes were transferred using wide mouth 200 μL pipette tips with minimal transfer of culture medium (e.g., about 20 μL). Generally, the oocytes oriented with the pigmented animal hemisphere facing up due to the higher density of the yolk-containing vegetal hemisphere. Incorrectly orientated oocytes were gently manipulated using a drawn-out capillary tube to rotate them into the correct orientation.
Forty-four test compounds were dissolved in DMSO to make 100× stock solutions. The test compounds were added to the appropriate wells at a final concentration of 100 μM (and 1% DMSO). Control oocytes were exposed to 1% DMSO only (generally the first and last wells of a plate contained the untreated, control oocytes). Sixteen hours later, progesterone was added to each well to stimulate progesterone-dependent oocyte maturation. For this, 2 μL of 1000× stock solution (2 mg/mL in ethanol) was added to the appropriate wells to yield a final concentration of 2 μg/mL. The rate of maturation in the control oocytes (i.e., those in the first and last wells) served as an intra-assay control for time taken for progesterone addition across the multi-well plate.
The 96-well plate was imaged from above (i.e., top-down) using a 36-megapixel Nikon D800 SLR camera with an AF Micro Nikkor 60 mm, f/2.8 lens, mounted on a dedicated copy stand (with adjustable flanking light sources). The plate was imaged prior to and after addition of progesterone (i.e., images were taken at regular intervals over a period of 7 hours). The high resolution images were digitally zoomed after capture to analyze the maturation status of oocytes in individual wells of the plate. Test compounds that slowed the rate of progesterone-dependent GVBD by 20% or more were classified as inhibitors (assessed relative to the time 50% of the population of control, vehicle treated oocytes had undergone GVBD (GVBD50)).
To determine whether the test compounds were able to activate oocyte maturation in a progesterone-independent manner, oocytes were incubated in the presence of the test compound (dissolved in DMSO) or DMSO only. The oocytes were imaged at regular intervals for the evidence of GVBD, or subsets of oocytes were removed at predetermined times and the activation status of key cell cycle control proteins (e.g., pMAP kinase, pCcd2, etc.) was analyzed by Western blotting. For example, activation of pMAP kinase is associated with increased phosphorylation whereas activation of pCdc2 is associated with decreased phosphorylation. Compounds were classified as an activator if they were able to induce GVBD in the absence of added progesterone. Further, compounds were classified as accelerators if they accelerated the rate of progesterone-stimulated GVBD, but were unable to induce GVBD in the absence of progesterone. The criteria for test compounds to be considered accelerators is that they must increase the rate of progesterone-dependent GVBD by 20% or more at one dose (assessed relative to the time 50% of the population of control, vehicle treated oocytes had undergone GVBD (GVBD50)).

CCRF-CEM = details: for GI50: CCRF-CEM, Leukemia
HL-60(TB) = details: for GI50: Leukemia
K-562 = details: for GI50: K-562, Leukemia
RPMI-8226 = details: for GI50: RPMI-8226, Leukemia
SR = details: for GI50: SR, Leukemia
NCI-H522 = details: for GI50: NCI-H522, Lung Cancer
HCT-15 = details: for GI50: HCT-15, Colon Cancer
KM12 = details: for GI50: KM12, Colon Cancer
SW-620 = details: for GI50: SW-620, Colon Cancer
SF-539 = details: for GI50: SF-539, CNS Cancer
SNB-19 = details: for GI50: SNB-19, CNS Cancer
SNB-75 = details: for GI50: SNB-75, CNS Cancer
MALME-3M = details: for GI50: MALME-3M, Melanoma
MDA-MB-435 = details: for GI50: MDA-MB-435, Melanoma
SK-MEL-5 = details: for GI50: SK-MEL-5, Melanoma
OVCAR-8 = details: for GI50: OVCAR-8, Ovarian Cancer
CAKI-1 = details: for GI50: CAKI-1, Renal Cancer
DU-145 = details: for GI50: DU-145, Prostate Cancer
HS 578T = details: for GI50: HS 578T, Breast Cancer
T-47D = details: for GI50: T-47D, Breast Cancer
ACHN = experiment: NCI 60-cell line five dose screen: ACHN; details: Renal Cancer

Substance: 13-(2-iodoimidazole)parthenolide [PNR-5-65]
- Xenopus Oocyte Maturation Assay, Without Progesterone (Xenopus oocytes): Not an activator or inhibitor
- Xenopus Oocyte Maturation Assay, With Progesterone (Xenopus oocytes): Not an activator or inhibitor
- CC50 (CCRF-CEM): 79.6 µM
- GI50 (CCRF-CEM): 6.13 µM
- GI50 (HL-60(TB)): 6.9 µM
- CC50 (K-562): 90 µM
- GI50 (K-562): 7.36 µM
- CC50 (RPMI-8226): > 100 µM
- GI50 (RPMI-8226): 17 µM
- CC50 (SR): > 100 µM
- GI50 (SR): 13.6 µM
- CC50 (NCI-H522): 6.34 µM
- GI50 (NCI-H522): 1.77 µM and 1.71 µM
- CC50 (HCT-15): 55.6 µM
- GI50 (HCT-15): 10.7 µM
- CC50 (KM12): > 100 µM
- GI50 (KM12): 43.2 µM
- CC50 (SW-620): 62.8 µM
- GI50 (SW-620): 11.4 µM
- CC50 (SF-539): 60.8 µM
- GI50 (SF-539): 16.7 µM
- CC50 (SNB-19): > 100 µM
- GI50 (SNB-19): > 100 µM
- CC50 (SNB-75): > 100 µM
- GI50 (SNB-75): 19.3 µM
- CC50 (MALME-3M): 62.7 µM
- GI50 (MALME-3M): 10.9 µM
- CC50 (MDA-MB-435): 59.5 µM
- GI50 (MDA-MB-435): 13.8 µM
- CC50 (SK-MEL-5): 95.6 µM
- GI50 (SK-MEL-5): 18.5 µM
- CC50 (OVCAR-8): 59.9 µM
- GI50 (OVCAR-8): 16.6 µM
- CC50 (CAKI-1): 49.5 µM
- GI50 (CAKI-1): 6.61 µM
- CC50 (DU-145): 68.3 µM
- GI50 (DU-145): 18.8 µM
- CC50 (HS 578T): > 100 µM
- GI50 (HS 578T): 21.3 µM
- CC50 (T-47D): 54.3 µM
- GI50 (T-47D): 9.88 µM
- GI50 (ACHN): 10.5 µM

Substance: (E)-13-(3-thiopheno)parthenolide [PNR-5-53]
- Xenopus Oocyte Maturation Assay, Without Progesterone (Xenopus oocytes): Not an activator or inhibitor
- Xenopus Oocyte Maturation Assay, With Progesterone (Xenopus oocytes): Not an activator or inhibitor
- CC50 (CCRF-CEM): > 100 µM
- GI50 (CCRF-CEM): 19.1 µM
- GI50 (HL-60(TB)): 21.7 µM
- CC50 (HL-60(TB); read-out: LC50, Leukemia): 99.9 µM
- CC50 (K-562): > 100 µM
- GI50 (K-562): 25.2 µM
- CC50 (RPMI-8226): > 100 µM
- GI50 (RPMI-8226): 19.7 µM
- CC50 (SR): > 100 µM
- GI50 (SR): 20.7 µM
- CC50 (NCI-H522): 59.7 µM
- GI50 (NCI-H522): 5.44 µM
- CC50 (HCT-15): > 100 µM
- GI50 (HCT-15): 22.6 µM
- CC50 (KM12): 86.7 µM
- GI50 (KM12): 20.4 µM
- CC50 (SW-620): > 100 µM
- GI50 (SW-620): 22.9 µM
- GI50 (SF-539): 16.1 µM
- CC50 (SNB-19): > 100 µM
- GI50 (SNB-19): 47.6 µM
- CC50 (SNB-75): > 100 µM
- GI50 (SNB-75): 21.5 µM
- CC50 (MALME-3M): > 100 µM
- GI50 (MALME-3M): 22.5 µM
- CC50 (MDA-MB-435): > 100 µM
- GI50 (MDA-MB-435): 18.3 µM
- CC50 (SK-MEL-5): 60.4 µM
- GI50 (SK-MEL-5): 16.3 µM
- CC50 (OVCAR-8): > 100 µM
- GI50 (OVCAR-8): 26.9 µM
- CC50 (CAKI-1): > 100 µM
- GI50 (CAKI-1): 30.9 µM
- CC50 (DU-145): > 100 µM
- GI50 (DU-145): 25.7 µM
- CC50 (HS 578T): > 100 µM
- GI50 (HS 578T): 21.5 µM
- CC50 (T-47D): > 100 µM
- GI50 (T-47D): 29.5 µM
- GI50 (ACHN): 32.8 µM
